Laboratory results published in ChEMBL document CHEMBL1201862, “PubChem BioAssay data set” (2004).
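Five concentrations, 48 hours, 96-well plates. GI50 marks 50% less growth.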 Calls of active or inactive are those of the source. Rule as the data show it: active = GI50 up to about 1.1 µM and inactive = higher.

Key:
Assay in all cases: inhibition of tumour cell growth, NCI panel, 48 h
786-0 = system: 786-0
A498 = system: A498
ACHN = system: ACHN
BT-549 = system: BT-549
CAKI-1 = system: CAKI-1
CCRF-CEM = system: CCRF-CEM
COLO 205 = system: COLO 205
DU-145 = system: DU-145
EKVX = system: EKVX
HCC 2998 = system: HCC 2998
HCT-116 = system: HCT-116
HCT-15 = system: HCT-15
HL-60 = system: HL-60
HOP-62 = system: HOP-62
HOP-92 = system: HOP-92
HT-29 = system: HT-29
Hs-578T = system: Hs-578T
IGROV-1 = system: IGROV-1
K562 = system: K562
KM12 = system: KM12
LOX IMVI = system: LOX IMVI
M14 = system: M14
MCF7 = system: MCF7
MDA-MB-231 = system: MDA-MB-231
MDA-MB-435 = system: MDA-MB-435
MDA-N = system: MDA-N
MOLT-4 = system: MOLT-4
NCI-H226 = system: NCI-H226
NCI-H23 = system: NCI-H23
NCI-H460 = system: NCI-H460
NCI/ADR-RES = system: NCI/ADR-RES
OVCAR-3 = system: OVCAR-3
OVCAR-4 = system: OVCAR-4
OVCAR-5 = system: OVCAR-5
OVCAR-8 = system: OVCAR-8
PC-3 = system: PC-3
RPMI-8226 = system: RPMI-8226
RXF 393 = system: RXF 393
SF-268 = system: SF-268
SF-295 = system: SF-295
SF-539 = system: SF-539
SK-MEL-28 = system: SK-MEL-28
SK-MEL-2 = system: SK-MEL-2
SK-MEL-5 = system: SK-MEL-5
SK-OV-3 = system: SK-OV-3
SN12C = system: SN12C
SNB-19 = system: SNB-19
SNB-75 = system: SNB-75
SW-620 = system: SW-620
T47D = system: T47D
TK-10 = system: TK-10
U-251 = system: U-251
UACC-257 = system: UACC-257
UACC-62 = system: UACC-62
UO-31 = system: UO-31
A549 = system: A549
Malme-3M = system: Malme-3M
NCI-H522 = system: NCI-H522
SR = system: SR

Measured: GI50

Oc1ccc2c(c1)OCC(O)(c1ccccc1O)C2 (centres undefined)
inactive: 786-0 > 100 µM | A498 > 100 µM | ACHN > 100 µM | BT-549 > 100 µM | CAKI-1 > 100 µM | CCRF-CEM > 100 µM | COLO 205 > 100 µM | DU-145 > 100 µM | EKVX > 100 µM | HCC 2998 > 100 µM | HCT-116 > 100 µM | HL-60 > 100 µM | HOP-62 > 100 µM | HOP-92 > 100 µM | HT-29 > 100 µM | Hs-578T 97.5 µM | IGROV-1 > 100 µM | K562 > 100 µM | KM12 > 100 µM | LOX IMVI > 100 µM | M14 > 100 µM | MCF7 > 100 µM | MDA-MB-231 > 100 µM | MDA-MB-435 > 100 µM | MDA-N > 100 µM | MOLT-4 > 100 µM | NCI-H226 > 100 µM | NCI-H23 > 100 µM | NCI-H460 > 100 µM | NCI/ADR-RES > 100 µM | OVCAR-3 > 100 µM | OVCAR-4 > 100 µM | OVCAR-5 > 100 µM | OVCAR-8 > 100 µM | PC-3 > 100 µM | RPMI-8226 > 100 µM | RXF 393 > 100 µM | SF-268 > 100 µM | SF-295 > 100 µM | SF-539 > 100 µM | SK-MEL-28 > 100 µM | SK-MEL-2 > 100 µM | SK-MEL-5 > 100 µM | SK-OV-3 > 100 µM | SN12C > 100 µM | SNB-19 > 100 µM | SNB-75 61.4 µM | SW-620 > 100 µM | T47D > 100 µM | TK-10 > 100 µM | U-251 > 100 µM | UACC-257 > 100 µM | UACC-62 > 100 µM | UO-31 > 100 µM
> 100 µM: HCT-15

NC(=O)NC(=O)Nc1ccc(Br)cc1
inactive: 786-0 20.5 µM | A498 9.79 µM | A549 > 16.6 µM | ACHN > 9.62 µM | BT-549 > 20 µM | CAKI-1 > 9.38 µM | CCRF-CEM > 4.65 µM | COLO 205 11.3 µM | DU-145 > 100 µM | EKVX 14.7 µM | HCC 2998 > 21.9 µM | HCT-116 17.3 µM | HL-60 4.34 µM | HOP-62 > 15.8 µM | HOP-92 > 100 µM | HT-29 3.46 µM | Hs-578T > 100 µM | IGROV-1 16.7 µM | K562 3.3 µM | KM12 21.8 µM | LOX IMVI 8.45 µM | M14 18.5 µM | MCF7 5.45 µM | MDA-MB-231 > 16.6 µM | MDA-MB-435 9.57 µM | MDA-N 50.9 µM | MOLT-4 3.78 µM | Malme-3M > 15.8 µM | NCI-H226 21.5 µM | NCI-H23 > 14.5 µM | NCI-H460 > 8.61 µM | NCI-H522 > 25.9 µM | NCI/ADR-RES > 30.8 µM | OVCAR-4 > 24.3 µM | OVCAR-5 > 21.1 µM | OVCAR-8 > 13.7 µM | PC-3 23.9 µM | RPMI-8226 10.3 µM | SF-268 > 6.93 µM | SF-295 14.7 µM | SF-539 > 17.3 µM | SK-MEL-28 6.14 µM | SK-MEL-2 13.2 µM | SK-MEL-5 7.67 µM | SK-OV-3 > 100 µM | SN12C > 67.5 µM | SNB-19 > 11.9 µM | SNB-75 3.19 µM | SW-620 > 11.5 µM | T47D 6.03 µM | TK-10 > 35.9 µM | U-251 11.7 µM | UACC-257 > 27.1 µM | UACC-62 2.92 µM | UO-31 22.8 µM
28 µM: HCT-15

CCOC(=O)N1c2ccccc2S(=O)(=O)c2ccccc21
> 100 µM: HCT-15
inactive: 786-0 > 100 µM | A498 > 100 µM | A549 > 100 µM | ACHN > 100 µM | BT-549 > 100 µM | CAKI-1 > 100 µM | CCRF-CEM > 100 µM | COLO 205 > 100 µM | DU-145 > 100 µM | EKVX > 100 µM | HCC 2998 > 100 µM | HCT-116 > 100 µM | HL-60 > 100 µM | HOP-62 > 100 µM | HT-29 > 100 µM | Hs-578T > 100 µM | IGROV-1 > 100 µM | K562 > 100 µM | KM12 > 100 µM | LOX IMVI > 100 µM | M14 > 100 µM | MCF7 > 100 µM | MDA-MB-231 > 100 µM | MDA-MB-435 > 100 µM | MDA-N > 100 µM | MOLT-4 > 100 µM | NCI-H226 > 100 µM | NCI-H23 > 100 µM | NCI-H460 > 100 µM | NCI-H522 > 100 µM | NCI/ADR-RES > 100 µM | OVCAR-3 > 100 µM | OVCAR-4 > 100 µM | OVCAR-5 > 100 µM | OVCAR-8 > 100 µM | PC-3 > 100 µM | RXF 393 > 100 µM | SF-268 > 100 µM | SF-295 > 100 µM | SF-539 > 100 µM | SK-MEL-28 > 100 µM | SK-MEL-2 > 100 µM | SK-MEL-5 > 100 µM | SK-OV-3 > 100 µM | SN12C > 100 µM | SNB-19 > 100 µM | SW-620 > 100 µM | T47D 67.8 µM | TK-10 > 100 µM | U-251 > 100 µM | UACC-257 > 100 µM | UACC-62 > 100 µM | UO-31 > 100 µM

CC(C)(C)OC(=O)NCCCCC(NC(=O)OCc1ccccc1)C(N)=O (centres undefined)
inactive: 786-0 > 100 µM | A549 > 100 µM | ACHN > 100 µM | BT-549 > 100 µM | CAKI-1 > 100 µM | CCRF-CEM > 100 µM | COLO 205 > 100 µM | DU-145 > 100 µM | EKVX 82.2 µM | HCC 2998 > 100 µM | HCT-116 > 100 µM | HL-60 > 100 µM | HOP-62 > 100 µM | HT-29 > 100 µM | Hs-578T > 100 µM | IGROV-1 > 100 µM | K562 > 100 µM | KM12 > 100 µM | LOX IMVI > 100 µM | M14 > 100 µM | MCF7 > 100 µM | MDA-MB-231 > 100 µM | MDA-MB-435 > 100 µM | MDA-N > 100 µM | MOLT-4 > 100 µM | Malme-3M > 100 µM | NCI-H226 > 100 µM | NCI-H23 > 100 µM | NCI-H460 > 100 µM | NCI-H522 > 100 µM | NCI/ADR-RES > 100 µM | OVCAR-3 > 100 µM | OVCAR-4 > 100 µM | OVCAR-5 > 100 µM | OVCAR-8 > 100 µM | PC-3 > 100 µM | RPMI-8226 > 100 µM | RXF 393 > 100 µM | SF-268 > 100 µM | SF-295 > 100 µM | SF-539 > 100 µM | SK-MEL-28 > 100 µM | SK-MEL-2 > 100 µM | SK-MEL-5 58.3 µM | SK-OV-3 > 100 µM | SN12C > 100 µM | SNB-19 > 100 µM | SNB-75 > 100 µM | SR > 100 µM | SW-620 > 100 µM | T47D > 100 µM | TK-10 > 100 µM | U-251 > 100 µM | UACC-257 > 100 µM | UACC-62 > 100 µM | UO-31 > 100 µM
> 100 µM: HCT-15

CCOC(=O)c1ccc(N(CCOS(C)(=O)=O)CCOS(C)(=O)=O)cc1
inactive: A498 35.2 µM | A549 53 µM | ACHN 26 µM | BT-549 40.6 µM | CAKI-1 12.6 µM | CCRF-CEM 23.9 µM | COLO 205 64.9 µM | DU-145 21.8 µM | EKVX 58.3 µM | HCC 2998 60.3 µM | HCT-116 30.1 µM | HL-60 39.9 µM | HOP-92 37.6 µM | HT-29 51.6 µM | Hs-578T 29.3 µM | IGROV-1 88.5 µM | K562 24.3 µM | KM12 67.9 µM | LOX IMVI 48.4 µM | M14 53.1 µM | MCF7 47.3 µM | MDA-MB-231 91.2 µM | MDA-MB-435 52.2 µM | MDA-N 45.6 µM | MOLT-4 17.8 µM | Malme-3M 38.8 µM | NCI-H23 43.3 µM | NCI-H460 37 µM | NCI-H522 12.9 µM | NCI/ADR-RES 35.7 µM | OVCAR-3 36.6 µM | OVCAR-4 35.7 µM | OVCAR-5 34.9 µM | OVCAR-8 47 µM | PC-3 50.7 µM | RPMI-8226 25.1 µM | RXF 393 20 µM | SF-268 26.1 µM | SF-295 51.1 µM | SF-539 25.1 µM | SK-MEL-28 > 100 µM | SK-MEL-2 55.2 µM | SK-MEL-5 42.2 µM | SNB-19 90.6 µM | SW-620 32 µM | T47D 43 µM | TK-10 83.4 µM | U-251 35.9 µM | UACC-257 > 100 µM | UACC-62 27.8 µM | UO-31 20.5 µM
40.9 µM: HCT-15
